Test results: ChEMBL document CHEMBL1201862, “PubChem BioAssay data set” (2004)
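Method: 48-hour compound exposure of cells in 96-well plates, five concentrations, linear interpolation of endpoints. GI50 is the concentration that inhibits growth by half.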 The source made the active and inactive calls. Cut-off read from the data, not from the text of the source: active = GI50 up to about 1.1 µM and inactive = higher.

Experiments:
Assay in all cases: growth of human tumour cells (NCI), 48 h
RPMI-8226 = system: RPMI-8226
MDA-MB-231 = system: MDA-MB-231
EKVX = system: EKVX
NCI-H226 = system: NCI-H226
K562 = system: K562
LOX IMVI = system: LOX IMVI
HL-60 = system: HL-60
OVCAR-5 = system: OVCAR-5
SK-MEL-2 = system: SK-MEL-2
DU-145 = system: DU-145
PC-3 = system: PC-3
MDA-MB-435 = system: MDA-MB-435
OVCAR-3 = system: OVCAR-3
SK-MEL-5 = system: SK-MEL-5
MCF7 = system: MCF7
OVCAR-8 = system: OVCAR-8
A549 = system: A549
T47D = system: T47D
ACHN = system: ACHN
HCT-116 = system: HCT-116
NCI-H522 = system: NCI-H522
SN12C = system: SN12C
M14 = system: M14
OVCAR-4 = system: OVCAR-4
BT-549 = system: BT-549
Hs-578T = system: Hs-578T
SF-268 = system: SF-268
SF-539 = system: SF-539
NCI/ADR-RES = system: NCI/ADR-RES
CAKI-1 = system: CAKI-1
COLO 205 = system: COLO 205
HOP-62 = system: HOP-62
HT-29 = system: HT-29
SK-MEL-28 = system: SK-MEL-28
MOLT-4 = system: MOLT-4
U-251 = system: U-251
SNB-19 = system: SNB-19
Malme-3M = system: Malme-3M
MDA-N = system: MDA-N
UACC-62 = system: UACC-62
KM12 = system: KM12
HCT-15 = system: HCT-15
RXF 393 = system: RXF 393
A498 = system: A498
UACC-257 = system: UACC-257
SK-OV-3 = system: SK-OV-3
786-0 = system: 786-0
SF-295 = system: SF-295
NCI-H460 = system: NCI-H460
UO-31 = system: UO-31
IGROV-1 = system: IGROV-1
HOP-92 = system: HOP-92
SNB-75 = system: SNB-75
TK-10 = system: TK-10
SW-620 = system: SW-620

**Q.** What does the source list for `O=C1c2ccccc2C(=O)c2c1ccc(C1C(=O)c3ccccc3C1=O)c2-c1c(C2C(=O)c3ccccc3C2=O)ccc2c1C(=O)c1ccccc1C2=O`?
**A.** GI50 (RPMI-8226): 13.1 µM (inactive); GI50 (MDA-MB-231): 47.3 µM (inactive); GI50 (EKVX): > 100 µM (inactive); GI50 (NCI-H226): > 100 µM (inactive); GI50 (K562): 36.6 µM (inactive); GI50 (LOX IMVI): 74.3 µM (inactive); GI50 (HL-60): 7.89 µM (inactive); GI50 (OVCAR-5): > 100 µM (inactive); GI50 (SK-MEL-2): > 100 µM (inactive); GI50 (DU-145): > 100 µM (inactive); GI50 (PC-3): > 100 µM (inactive); GI50 (MDA-MB-435): > 100 µM (inactive); GI50 (OVCAR-3): > 100 µM (inactive); GI50 (SK-MEL-5): > 100 µM (inactive); GI50 (MCF7): > 100 µM (inactive); GI50 (OVCAR-8): > 100 µM (inactive); GI50 (A549): > 100 µM (inactive); GI50 (T47D): > 100 µM (inactive); GI50 (ACHN): > 100 µM (inactive); GI50 (HCT-116): > 100 µM (inactive); GI50 (NCI-H522): > 100 µM (inactive); GI50 (SN12C): > 100 µM (inactive); GI50 (M14): > 100 µM (inactive); GI50 (OVCAR-4): > 100 µM (inactive); GI50 (BT-549): > 100 µM (inactive); GI50 (Hs-578T): > 100 µM (inactive); GI50 (SF-268): > 100 µM (inactive); GI50 (SF-539): > 100 µM (inactive); GI50 (NCI/ADR-RES): > 100 µM (inactive); GI50 (CAKI-1): > 100 µM (inactive); GI50 (COLO 205): > 100 µM (inactive); GI50 (HOP-62): > 100 µM (inactive); GI50 (HT-29): > 100 µM (inactive); GI50 (SK-MEL-28): > 100 µM (inactive); GI50 (MOLT-4): 19 µM (inactive); GI50 (U-251): > 100 µM (inactive); GI50 (SNB-19): > 100 µM (inactive); GI50 (Malme-3M): > 100 µM (inactive); GI50 (MDA-N): > 100 µM (inactive); GI50 (UACC-62): > 100 µM (inactive); GI50 (KM12): > 100 µM (inactive); GI50 (HCT-15): > 100 µM; GI50 (RXF 393): > 100 µM (inactive); GI50 (A498): > 100 µM (inactive); GI50 (UACC-257): > 100 µM (inactive); GI50 (SK-OV-3): > 100 µM (inactive); GI50 (786-0): > 100 µM (inactive); GI50 (SF-295): > 100 µM (inactive); GI50 (NCI-H460): > 100 µM (inactive); GI50 (UO-31): > 100 µM (inactive); GI50 (IGROV-1): > 100 µM (inactive); GI50 (HOP-92): > 100 µM (inactive); GI50 (SNB-75): > 100 µM (inactive); GI50 (TK-10): > 100 µM (inactive); GI50 (SW-620): 15.3 µM (inactive)
